Assay results reported in patent US8697369B2, “Method for screening a test substance for activating a receptor associated with FGF 21 activity” (National Institute of Advanced Industrial Science and …, priority 2007, dated 2014).
Entries after “also recorded” stand apart in the source; their conditions may differ. One block for each substance: values may come before it.

How the values were obtained:
[1] = tested on: FGFR4/betaKlotho-expressing cells; experiment: Phosphorylation of FRS2 and MAPK (Western blotting) in FGFR4/betaKlotho-expressing cells; type: cell-based, mouse; conditions: presence of heparin; 10 minutes stimulation
Procedure: (§1) Each FGFR/betaKlotho-expressing cells obtained in Example 6 were stimulated with FGF, and the activated state (phosphorylated state) of a signaling molecule FRS2 (fibroblast growth factor receptor substrate 2) located downstream of FGFR, and that of MAPK (mitogen activated protein kinase; alias: ERK (extracellular signal-regulated kinase; in general, there are two types of ERKs, namely, ERK1 with a molecular weight of 44 kDa and ERK2 with a molecular weight of 42 kDa)), were analyzed. Different types of cells were stimulated with each FGF in the presence of heparin for 10 minutes, and a cell lysate was then prepared. Thereafter, the phosphorylated degree was evaluated by measuring it by a Western blotting method using a commercially available anti-phosphorylation FRS2 antibody or an anti-phosphorylation MAPK antibody.

[2] = target: T1, FGFR2c/betaKlotho-expressing cells (Mus musculus, UniProt P21803+Q99N32); experiment: Phosphorylation of FRS2 and MAPK (Western blotting) in FGFR2c/betaKlotho-expressing cells; type: cell-based; conditions: presence of heparin; 10 minutes stimulation
T1 construct: the entire-length cDNA of mouse betaKlotho was cloned into an animal cell expression vector; expressed in transfected cells; host or cells: BaF3 (mouse pro-B) cells
Procedure: as §1

[3] = target: T2, FGFR1c/betaKlotho-expressing BaF3 cells (Mus musculus, UniProt P16092+Q99N32); experiment: DNA synthesis (thymidine incorporation) in FGFR1c/betaKlotho-expressing BaF3 cells; type: cell-based
T2 construct: the entire-length cDNA of mouse FGFR1c had been cloned; the entire-length cDNA of mouse betaKlotho was cloned into an animal cell expression vector; expressed in transfected cells; host or cells: BaF3 (mouse pro-B) cells
Procedure: (§2) A commonly used measurement method is a cell growth stimulating activity measurement method described in Ornitz, D. M., Xu, J., Colvin, J. S., McEwen, D. G., MacArthur, C. A., Coulier, F., Gao, G. and Goldfarb, M. (1996) Receptor specificity of the fibroblast growth factor family. J Biol Chem, 271, 15292-15297. The summary thereof is as follows. FGF used as a measurement target is added to a culture solution containing a cultured cell having an FGF receptor on the surface thereof, and the obtained mixture is cultured for a certain period of time. Thereafter, a labeled thymidine is added to the culture solution, followed by further culture for a certain period of time. By measuring the amount of the labeled thymidine incorporated into polymeric DNA during the culture, the degree of FGF to activate DNA synthesis is evaluated. (In the present invention as well, this method was adopted when the activity of FGF21 was measured in Examples 4, 5, 6, 8, 9, and 10.)
FGFR1c-expressing BaF3 cells and FGFR1c- and betaKlotho-expressing BaF3 cells were prepared as follows. In the case of FGFR1c-expressing BaF3 cells, an animal cell expression vector into which the entire-length cDNA of mouse FGFR1c had been cloned (described in Ornitz, D. M., Xu, J., Colvin, J. S., McEwen, D. G., MacArthur, C. A., Coulier, F., Gao, G. and Goldfarb, M. (1996) Receptor specificity of the fibroblast growth factor family. J Biol Chem, 271, 15292-15297.) was introduced into BaF3 cells by an electroporation method. The cells were then cultured in the presence of G418 for approximately 2 weeks, so as to obtain drug-resistant clones. Thereafter, such clones were obtained as those capable of growing as a result of FGF1 stimulation. In the case of both FGFR1c- and betaKlotho-expressing BaF3 cells, the entire-length cDNA of mouse betaKlotho was cloned into an animal cell expression vector, and it was then introduced into the FGFR1c-expressing BaF3 cells. The cells were then cultured in the presence of Puromycin and G418 for approximately 2 weeks, so as to obtain drug-resistant clones. In the case of only betaKlotho-expressing BaF3 cells, a betaKlotho-expressing vector was introduced into BaF3 cells, and Puromycin-resistant clones were then obtained. The BaF3 cells, into which the aforementioned genes had been each introduced, were maintained in an RPMI1640 medium containing 10% FBS and interleukin 3 (IL3, supplied by adding a 5% condition medium of WEHI-3 cells). For the growth stimulation experiment, the cells were washed with an RPMI1640 medium, and they were then suspended in an RPMI1640 medium containing 10% FBS, followed by inoculating the suspension on a culture plate. Thereafter, the resultant cells were used.
Immediately after inoculation, BaF3 cells that had expressed each clone and only FGFR1c were stimulated by addition of FGF21 (open bar) or PBS (filled bar) used as a control in the presence of heparin, and they were then cultured for 42 hours. Thereafter, tritium-labeled thymidine was added to the culture solution, and the culture was further continued for 6 hours. Thereafter, the amount of thymidine incorporated into the cells was measured, so as to evaluate DNA synthesis. A DNA synthesis value obtained when the cells were not stimulated with FGF21 was defined as 1, and the ratio of a DNA synthesis value obtained by stimulating with FGF21 to the aforementioned DNA synthesis value was expressed using magnification. […]

[4] = tested on: R3c/betaKlotho-expressing cells; experiment: Phosphorylation of FRS2 and MAPK (Western blotting) in R3c/betaKlotho-expressing cells; type: cell-based, mouse; conditions: presence of heparin; 10 minutes stimulation
Procedure: as §1

[5] = tested on: FGFR4/betaKlotho-expressing BaF3 cells; experiment: DNA synthesis (thymidine incorporation) in FGFR4/betaKlotho-expressing BaF3 cells; type: cell-based, mouse; conditions: BaF3 cells expressing FGFR4 and betaKlotho; presence of heparin
Procedure: as §2
(§3) Whether other receptor molecules can also act as such FGF receptors was examined. An expression vector containing each FGFR (FGFR1b, R1c, R2b, R2c, R3b, R3c, and R4) (described in Ornitz, D. M., Xu, J., Colvin, J. S., McEwen, D. G., MacArthur, C. A., Coulier, F., Gao, G. and Goldfarb, M. (1996) Receptor specificity of the fibroblast growth factor family. J Biol Chem, 271, 15292-15297.) was introduced into betaKlotho-expressing BaF3 cells, so as to obtain clones that were resistant to Puromycin and G418, thereby obtaining FGFR/betaKlotho-expressing cells. Such cells were stimulated with FGF21, and the amount of DNA synthesized was measured.
(§4) The activity of FGF21 to stimulate the DNA synthesis of BaF3 cells that had expressed each FGFR (FGFR1c, R2c, F3c, and R4) as well as betaKlotho was compared with the activity of FGF19, which was evolutionally relative to FGF21. […] The cells were stimulated with FGF21, FGF19, and FGF1 in the presence of heparin, while changing the amounts of FGF21, FGF19, and FGF1, as shown in the figure, and the amount of DNA synthesized was then measured.

[6] = target: T3, FGFR2c/betaKlotho-expressing BaF3 cells (Mus musculus, UniProt P21803+Q99N32); experiment: DNA synthesis (thymidine incorporation) in FGFR2c/betaKlotho-expressing BaF3 cells; type: cell-based; conditions: BaF3 cells expressing FGFR2c and betaKlotho; presence of heparin
T3 construct: the entire-length cDNA of mouse betaKlotho was cloned into an animal cell expression vector; expressed in transfected cells; host or cells: BaF3 (mouse pro-B) cells
Procedure: as §2, §3, §4

[7] = tested on: FGFR3c/betaKlotho-expressing BaF3 cells; experiment: DNA synthesis (thymidine incorporation) in FGFR3c/betaKlotho-expressing BaF3 cells; type: cell-based, mouse
Procedure: as §2, §3
The activity of FGF21 to stimulate the DNA synthesis of BaF3 cells that had expressed each FGFR (FGFR1c, R2c, F3c, and R4) as well as betaKlotho was compared with the activity of FGF19, which was evolutionally relative to FGF21. By procedures opposite to those of Example 5, namely, an expression vector containing betaKlotho was introduced into BaF3 cells that had expressed each type of FGFR, so as to obtain Puromycin- and G418-resistant clones, thereby obtaining FGFR/betaKlotho-expressing cells. The cells were stimulated with FGF21, FGF19, and FGF1 in the presence of heparin, while changing the amounts of FGF21, FGF19, and FGF1, as shown in the figure, and the amount of DNA synthesized was then measured.

[8] = target: T4, R1c/betaKlotho-expressing cells (Mus musculus, UniProt P16092+Q99N32); experiment: Phosphorylation of FRS2 and MAPK (Western blotting) in R1c/betaKlotho-expressing cells; type: cell-based; conditions: presence of heparin; 10 minutes stimulation
T4 construct: the entire-length cDNA of mouse FGFR1c had been cloned; the entire-length cDNA of mouse betaKlotho was cloned into an animal cell expression vector; expressed in transfected cells; host or cells: BaF3 (mouse pro-B) cells
Procedure: as §1

[9] = target: T5, betaKlotho-expressing BaF3 cells (Mus musculus, UniProt Q99N32); experiment: DNA synthesis (thymidine incorporation) in BaF3 cells expressing only betaKlotho; type: cell-based; conditions: presence or absence of heparin
T5 construct: the entire-length cDNA of mouse betaKlotho was cloned into an animal cell expression vector; expressed in transfected cells; host or cells: BaF3 (mouse pro-B) cells
T5 sequence (Q99N32 1-1043): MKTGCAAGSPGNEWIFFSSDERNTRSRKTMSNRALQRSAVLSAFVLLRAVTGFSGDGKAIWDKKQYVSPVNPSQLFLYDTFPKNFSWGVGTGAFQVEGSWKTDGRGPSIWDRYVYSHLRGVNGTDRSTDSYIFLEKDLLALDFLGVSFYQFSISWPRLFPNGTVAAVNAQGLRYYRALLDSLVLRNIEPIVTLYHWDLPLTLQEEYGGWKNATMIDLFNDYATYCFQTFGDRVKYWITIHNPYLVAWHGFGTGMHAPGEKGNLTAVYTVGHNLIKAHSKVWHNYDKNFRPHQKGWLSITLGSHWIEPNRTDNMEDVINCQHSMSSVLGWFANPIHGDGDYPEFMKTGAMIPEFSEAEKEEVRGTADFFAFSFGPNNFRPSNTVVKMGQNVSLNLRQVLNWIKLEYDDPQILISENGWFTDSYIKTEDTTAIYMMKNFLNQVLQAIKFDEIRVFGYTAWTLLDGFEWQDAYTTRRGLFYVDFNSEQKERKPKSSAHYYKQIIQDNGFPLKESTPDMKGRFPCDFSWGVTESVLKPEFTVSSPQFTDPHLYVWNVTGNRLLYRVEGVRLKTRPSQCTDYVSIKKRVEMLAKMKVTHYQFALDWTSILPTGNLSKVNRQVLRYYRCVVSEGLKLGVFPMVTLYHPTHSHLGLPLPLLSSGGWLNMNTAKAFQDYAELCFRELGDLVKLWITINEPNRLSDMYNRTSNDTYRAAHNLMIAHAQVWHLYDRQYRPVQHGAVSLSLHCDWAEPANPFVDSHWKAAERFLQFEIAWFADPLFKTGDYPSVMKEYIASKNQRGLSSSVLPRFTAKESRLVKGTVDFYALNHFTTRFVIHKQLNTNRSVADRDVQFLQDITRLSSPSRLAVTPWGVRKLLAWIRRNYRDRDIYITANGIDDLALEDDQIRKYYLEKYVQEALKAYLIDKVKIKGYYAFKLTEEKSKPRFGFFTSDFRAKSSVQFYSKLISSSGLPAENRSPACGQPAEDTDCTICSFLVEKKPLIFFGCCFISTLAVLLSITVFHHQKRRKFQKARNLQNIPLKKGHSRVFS
Procedure: as §2, with “10.) […]” for “10.)”
Immediately after inoculation, BaF3 cells that had expressed each clone and only FGFR1c were stimulated by addition of FGF21 (open bar) or PBS (filled bar) used as a control in the presence of heparin, and they were then cultured for 42 hours. […] Thereafter, the amount of thymidine incorporated into the cells was measured, so as to evaluate DNA synthesis. […]

T2 sequence (P16092 22-822, one chain of several): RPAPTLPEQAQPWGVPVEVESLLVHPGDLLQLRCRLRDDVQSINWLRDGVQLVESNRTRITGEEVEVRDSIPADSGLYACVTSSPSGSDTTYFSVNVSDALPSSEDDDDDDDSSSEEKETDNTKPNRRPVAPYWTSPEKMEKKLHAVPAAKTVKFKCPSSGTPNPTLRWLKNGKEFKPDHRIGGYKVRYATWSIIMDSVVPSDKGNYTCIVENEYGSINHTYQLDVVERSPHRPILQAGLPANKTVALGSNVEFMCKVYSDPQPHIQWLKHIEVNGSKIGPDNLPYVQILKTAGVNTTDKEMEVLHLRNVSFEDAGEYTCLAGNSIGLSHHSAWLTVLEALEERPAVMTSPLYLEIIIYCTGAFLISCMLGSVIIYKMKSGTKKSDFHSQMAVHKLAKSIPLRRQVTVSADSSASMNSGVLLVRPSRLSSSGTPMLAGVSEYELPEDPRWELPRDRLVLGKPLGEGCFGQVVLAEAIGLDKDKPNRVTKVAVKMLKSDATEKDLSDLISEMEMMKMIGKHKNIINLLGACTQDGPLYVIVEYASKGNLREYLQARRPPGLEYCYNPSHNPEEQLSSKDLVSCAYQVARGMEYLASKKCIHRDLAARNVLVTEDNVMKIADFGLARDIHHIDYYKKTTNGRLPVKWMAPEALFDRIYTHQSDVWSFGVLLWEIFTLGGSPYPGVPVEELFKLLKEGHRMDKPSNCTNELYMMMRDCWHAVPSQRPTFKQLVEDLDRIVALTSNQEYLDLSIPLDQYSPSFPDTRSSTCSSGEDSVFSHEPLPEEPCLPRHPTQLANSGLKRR
Sequence of FGFR3c/betaKlotho-expressing BaF3 cells (Q61851 21-369 limits assumed, one chain of several): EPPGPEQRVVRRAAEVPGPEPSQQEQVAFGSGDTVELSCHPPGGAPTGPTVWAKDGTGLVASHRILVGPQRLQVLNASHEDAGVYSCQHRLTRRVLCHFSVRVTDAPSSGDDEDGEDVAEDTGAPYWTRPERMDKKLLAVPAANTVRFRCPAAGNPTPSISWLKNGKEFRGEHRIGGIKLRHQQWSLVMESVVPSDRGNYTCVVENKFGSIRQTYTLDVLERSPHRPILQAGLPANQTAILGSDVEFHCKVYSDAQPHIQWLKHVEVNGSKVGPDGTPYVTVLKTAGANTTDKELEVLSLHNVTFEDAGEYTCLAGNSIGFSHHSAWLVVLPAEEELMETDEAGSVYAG
Sequence of R3c/betaKlotho-expressing cells (Q61851 21-369 limits assumed, one chain of several): as above
T3 sequence (P21803 22-821, one chain of several): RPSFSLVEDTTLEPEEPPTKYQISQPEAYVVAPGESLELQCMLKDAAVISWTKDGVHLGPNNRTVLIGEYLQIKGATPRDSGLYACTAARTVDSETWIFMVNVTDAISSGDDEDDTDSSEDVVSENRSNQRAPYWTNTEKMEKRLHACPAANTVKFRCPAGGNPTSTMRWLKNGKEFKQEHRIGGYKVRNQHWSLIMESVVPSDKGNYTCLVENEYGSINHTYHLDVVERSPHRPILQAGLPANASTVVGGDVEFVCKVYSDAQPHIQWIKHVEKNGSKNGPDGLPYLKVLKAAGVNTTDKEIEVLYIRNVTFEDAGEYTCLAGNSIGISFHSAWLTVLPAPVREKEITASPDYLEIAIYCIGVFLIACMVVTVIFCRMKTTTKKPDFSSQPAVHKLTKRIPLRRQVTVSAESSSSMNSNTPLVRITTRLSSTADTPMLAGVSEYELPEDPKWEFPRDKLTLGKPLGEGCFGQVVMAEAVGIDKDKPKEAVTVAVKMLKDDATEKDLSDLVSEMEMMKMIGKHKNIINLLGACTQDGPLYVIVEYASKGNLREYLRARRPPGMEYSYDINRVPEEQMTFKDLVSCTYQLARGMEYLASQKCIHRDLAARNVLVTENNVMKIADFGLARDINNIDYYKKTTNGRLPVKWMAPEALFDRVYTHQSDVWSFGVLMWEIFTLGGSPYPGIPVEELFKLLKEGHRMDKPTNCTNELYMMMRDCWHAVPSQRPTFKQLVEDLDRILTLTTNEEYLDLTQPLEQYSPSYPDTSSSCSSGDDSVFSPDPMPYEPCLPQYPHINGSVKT
T1 sequence (P21803 22-821, one chain of several): as above
Sequence of FGFR4/betaKlotho-expressing BaF3 cells (Q03142 17-366 limits assumed, one chain of several): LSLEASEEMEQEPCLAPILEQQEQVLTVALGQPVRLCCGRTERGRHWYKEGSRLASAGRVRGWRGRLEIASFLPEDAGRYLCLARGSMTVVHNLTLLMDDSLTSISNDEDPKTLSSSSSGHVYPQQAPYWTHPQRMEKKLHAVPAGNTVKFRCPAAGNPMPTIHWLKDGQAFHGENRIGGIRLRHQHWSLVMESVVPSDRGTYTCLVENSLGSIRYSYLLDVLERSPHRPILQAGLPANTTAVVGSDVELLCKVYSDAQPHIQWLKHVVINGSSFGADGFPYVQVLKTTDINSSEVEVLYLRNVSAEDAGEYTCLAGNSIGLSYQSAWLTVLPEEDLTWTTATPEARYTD
Sequence of FGFR4/betaKlotho-expressing cells (Q03142 143-366 limits assumed, one chain of several): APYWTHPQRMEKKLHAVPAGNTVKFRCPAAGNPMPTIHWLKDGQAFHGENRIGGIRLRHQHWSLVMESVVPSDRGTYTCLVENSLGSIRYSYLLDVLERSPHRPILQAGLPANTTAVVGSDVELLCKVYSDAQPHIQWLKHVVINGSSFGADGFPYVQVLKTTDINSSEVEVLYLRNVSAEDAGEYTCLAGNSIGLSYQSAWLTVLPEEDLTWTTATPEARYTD
T4 sequence (P16092 22-822, one chain of several): as the sequence (P16092 22-822, one chain of several) above

DNA synthesis (thymidine incorporated into the cells) ([3]; BaF3 cells expressing FGFR1c and betaKlotho, presence or absence of heparin): strong activity
DNA synthesis (thymidine incorporated into the cells) [6]: strong activity
Substance: FGF19: FGF family member evolutionally relative to FGF21, used for comparison
phosphorylation of FRS2 and MAPK [1]: significantly increase the phosphorylation
phosphorylation of FRS2 and MAPK [2]: significantly increase the phosphorylation
phosphorylation of FRS2 and MAPK [4]: significantly increase the phosphorylation
DNA synthesis (thymidine incorporated into the cells) [5]: strong activity
DNA synthesis (thymidine incorporated into the cells) ([7]; BaF3 cells expressing FGFR3c and betaKlotho): strong activity
phosphorylation of FRS2 and MAPK [8]: significantly increase the phosphorylation

Substance: heparin [reference compound]
effect of heparin on the action of FGF21 (DNA synthesis) ([3]; FGFR1c/betaKlotho-expressing BaF3 cells stimulated with FGF21): increases the action of FGF21; also recorded: reactivity was increased
effect of heparin on reactivity with FGF21 (DNA synthesis) ([7]; FGFR3c/betaKlotho-expressing BaF3 cells stimulated with FGF21): reactivity was increased

DNA synthesis (thymidine incorporated into the cells) [9]: significantly grew
Substance: interleukin 3 [reference compound]
